Laboratory results taken from patent publication US20240315297A1, “STEVIOL GLYSOCIDE SOLUBILITY ENHANCERS” (CARGILL, INCORPORATED, priority 2017, published 2024).

Tests used:
[1] = Observation of samples for solubility/precipitation in water (Example 9); format: physicochemical; conditions: for time over which a soluble solution was promoted: 0.3% steviol glycoside mixture, 5:1 molar ratio of acid to steviol glycoside
[2] = sensory evaluation; cited from earlier work
[3] = format: physicochemical
Text: The composition can optionally be expressed in terms of the concentration of one or more steviol glycoside(s). […] Clear solutions without precipitates are considered soluble. Unless indicated otherwise herein, the term “solubility” refers to “equilibrium solubility.”

time over which a soluble solution was promoted [1] [days]	equilibrium solubility [3]	instantaneous solubility [3]	SMILES	also measured
3			O=C(O)c1cc(C(=O)O)c(C(=O)O)cc1C(=O)O [Pyromellitic acid]	
3			O=C(O)C(O)c1ccccc1 (centres unmarked) [Mandelic acid]	
	0.08%	less than 0.08%	C=C1C[C@@]23CC[C@H]4[C@@](C)(CCC[C@@]4(C)C(=O)O[C@@H]4O[C@H](CO)[C@@H](O)[C@H](O)[C@H]4O[C@@H]4O[C@H](CO)[C@@H](O)[C@H](O)[C@H]4O)[C@@H]2CC[C@]1(O[C@@H]1O[C@H](CO)[C@@H](O)[C@H](O[C@@H]2O[C@H](CO)[C@@H](O)[C@H](O)[C@H]2O)[C@H]1O[C@@H]1O[C@H](CO)[C@@H](O)[C@H](O)[C@H]1O)C3 [Rebaudioside D, rebaudioside D]	times sweeter than sucrose [2]: 200-220 times
	about 0.2%	about 0.13%	C=C1C[C@@]23CC[C@H]4[C@@](C)(CCC[C@@]4(C)C(=O)O[C@@H]4O[C@H](CO)[C@@H](O)[C@H](O[C@@H]5O[C@H](CO)[C@@H](O)[C@H](O)[C@H]5O)[C@H]4O[C@@H]4O[C@H](CO)[C@@H](O)[C@H](O)[C@H]4O)[C@@H]2CC[C@]1(O[C@@H]1O[C@H](CO)[C@@H](O)[C@H](O[C@@H]2O[C@H](CO)[C@@H](O)[C@H](O)[C@H]2O)[C@H]1O[C@@H]1O[C@H](CO)[C@@H](O)[C@H](O)[C@H]1O)C3 [Rebaudioside M, rebaudioside M]	
			O=C(O)c1cc(O)c(O)c(O)c1 [Gallic acid]	colour imparted to the sample solutions ([1]; more apparent at higher concentrations, observed after about 3 days): brownish tinge
